Experiments:
A375, human melanoma = assay: MTT cell viability, A375; type: cell-based; conditions: 48 h, MTT or CV
Method: Both melanoma and colon cancer are tumor types tightly connected with inflammation, while the expression of COX-2 in the selected cell lines was highly variable. Since a lot of discrepancies were found in the literature concerning the expression of this enzyme[5],[48]–[53], both COX-1 and COX-2 expression was analyzed by Western blot. […] The cells were treated with a wide range of doses of 4a–c, 5, and 6 for 48 h and cell viability was determined by MTT (3-(4,5-dimethylthiazol-2-yl)-2,5-diphenyltetrazolium bromide) and CV (crystal violet) assays. The obtained IC50 values were similar for both assays (Table 1).
Reagents were obtained from Sigma (St. Louis, MO) unless indicated otherwise. Annexin V - FITC (AnnV) was acquired from Biotium (Hayward, CA) and Apostat from R&D (R&D S ystems, Minneapolis, MN USA). […] After being detached b y tr ypsinization, cells were seeded in defined number as follows: 2.5 × 10^3 cells/well in 96-well plates for viability assessment and 2 × 10^4 cells/well in 24-well plates for flow cytometry. […]
Committee at IBISS (02- 09/1 6). Cells were counted and seeded in 96-well plates and incubat ed overnight. Before treatment, non- adherent cells were removed. Compounds 4a- c, 5 and 6 were dissolved in DMSO and stored at −20 °C for a m onth. Working solutions were freshl y prepared in 10% FCS-RPMI-1640. Controls were treated with culture medium containing the equivalent […]
3.2. Cell viability tests.
The number of viable cel ls in culture was estimated by the MTT (3-(4,5- dimethylthiazol- 2-yl ) - 2,5- diphenyltetrazolium bromide) and CV (crystal violet) tests. Cells were incubated in the presence of compounds 4a- c, 5 and 6 for 48 h, then the viability was measured as described.4 […]
The results were ex pressed as a p er centage of a v alue obtained for the untr eated control cells that was arbitrarily set to be 100%. A non- linear regression analysis of obtained results was done b y using Gr aphPad Prism software to calculat e IC50 values. […]

[1] = system: COX-2-overexpressing (HCA-7) human colon cancer cell line; conditions: cited from earlier work
[2] = system: COX-2-negative (HCT-116) human colon cancer cell line; conditions: cited from earlier work

**Q.** With CS(=O)(=O)c1ccc(C2=C(c3ccccc3)C(=O)OC2)cc1 [Rofecoxib] as the compound, how does the “viability of A375 cells” value (A375, human melanoma) read?
**A.** Its value is “did not result in significantly decreased viability”.

**Q.** What about the “activity against HCA-7” value [1] of the same compound?
**A.** The value was “inactive”.

**Q.** What about the “activity against HCT-116” value [2] of the same compound?
**A.** The value was “inactive”.
